# Reference: patent publication US20140323522A1, “Method of Treating Cancer” (Exelixis, Inc., priority 2011, published 2014)
# How the values were obtained:
# [1] = tested on: pancreatic neuroendocrine tumor; assay: murine pancreatic neuroendocrine tumor model; conditions: mouse, in vivo
# [2] = tested on: endothelial cells and tumor cells; assay: apoptosis of endothelial cells and tumor cells
# [3] = tested on: xenograft tumor models; assay: xenograft tumor models; conditions: in vivo
# [4] = phase 1 clinical study, tolerability
# [5] = tested on: Human CRPC ARCaPM cells; assay: ARCaPM in vivo efficacy study (intratibial xenografts); set-up: species or system nude mice
# Method: Micro-CT-based quantification (Scanco 40 instrument) of 5 tibiae per group with 2 measurements each were used. ([…]) indicates vehicle tibia lacking detectable tumor in the section evaluated by histology. […] Bioquant® Image Analysis software was used for the histomorphometry of H&E-stained sections. Tumor (8A) and bone area (8B) were measured in the evaluated sections by tracing their outline within an area of 1×1 mm^2 (total tissue area) near the center of the growth plate. Percentages relative to the total tissue area were calculated. […] Bioquant® Image Analysis software was used for the histomorphometry of consecutive H&E- and TRAP-stained sections. (9A) Based on TRAP stain, OC numbers were counted along the border of the trabecular bone within the same tissue area used to assess tumor and bone area (FIG. 8). The ratio of OCs per bone perimeter (OC/mm) was calculated. (9B) OBs were counted along the trabecular bone surface in the same area on the H&E-stained sections and the number of OBs per bone perimeter (0 B/mm) was calculated. ([…]) indicates vehicle-treated mice without detectable tumor in the corresponding tumor area analysis (FIG. 8A). (A) indicates compound 1-treated mice with detectable tumor in the corresponding tumor area analysis (FIG. 8A).
# [6] = tested on: mature OCs; assay: in vitro osteoclast (OC) activity assay (bone resorption by mature OCs); assay type: cell-based, human; conditions: day 10
# [7] = oral bioavailability; conditions: in vivo
# [8] = tested on: Mouse KS482 cells; assay: in vitro osteoblast (OB) differentiation assay; assay type: cell-based; conditions: day 8
# [9] = tested on: Mouse KS482 cells; assay: in vitro osteoblast (OB) bone-forming activity assay; assay type: cell-based
# [10] = tested on: CD34+ cells derived from human bone marrow; assay: in vitro osteoclast (OC) differentiation assay; assay type: cell-based; conditions: day 7
# [11] = tested on: castration-resistant prostate cancer (CRPC) with bone metastases; assay: Phase 2 trial (NCT00940225) case studies of CRPC patients with bone metastases treated with compound 1; assay type: in vivo, human
# Excerpt: All patients provided informed consent before study screening.
# [12] = tested on: proteins related to the VEGF pathway (VEGF, NRP-1, HIF1α); assay: IHC and single quantum-dot labeling of ARCaPM tumors in tibia sections, VEGF pathway proteins; assay type: in vivo, nude mice; conditions: 10 mg/kg or 30 mg/kg, 7 weeks, vs vehicle
# [13] = 10 mg/kg or 30 mg/kg, 7 weeks, compared to vehicle
# [14] = 10 mg/kg or 30 mg/kg, 7 weeks, relative to vehicle
smiles,measurement,setting,value
"COc1cc2nccc(Oc3ccc(NC(=O)C4(C(=O)Nc5ccc(F)cc5)CC4)cc3)c2cc1OC [Compound 1, N-(4-{[6,7-bis(methyloxy)quinolin-4-yl]oxy}phenyl)-N′-(4-fluorophenyl)cyclopropane-1,1-dicarboxamide]",overall survival,[1],substantially improves
same,tumor invasiveness and metastasis,[1],significantly reduces
same,apoptosis of endothelial cells and tumor cells,[2],rapidly induces apoptosis
same,tumor growth in xenograft tumor models,[3],causes tumor regression
same,most commonly observed adverse events,[4],"fatigue, diarrhea, anorexia, rash, and palmar-plantar erythrodysesthesia"
same,tolerability,[4],generally well-tolerated
same,"osteoblasts (OBs) along the trabecular bone, tibia sections",[5]; [13],increased OBs
same,"osteoclasts (OCs) along the trabecular bone, tibia sections",[5]; [13],no change in OCs
same,"bone mineral density, micro-CT",[5]; [14],preserves
same,"bone volume/tissue volume (BV/TV), micro-CT",[5]; [14],preserves
same,"progression of CRPC ARCaPM tumor xenografts in bone (X-ray, micro-CT of tibiae)","[5]; 30 mg/kg, 7 weeks of treatment, vs vehicle",blocks progression
same,progression of CRPC ARCaPM tumor xenografts in bone (H&E stain of tibia sections),"[5]; 7 weeks of treatment, vs vehicle",blocks progression
same,ability of mature OCs to resorb bone (secreted CTX normalized to TRACP 5b),[6],does not affect
same,oral bioavailability,[7],orally bioavailable
same,OB differentiation (cellular ALP activity),[8],biphasic effects
same,OB bone forming activity (organic and inorganic bone matrix),[9],biphasic effects
same,OC differentiation (secreted TRACP 5b levels),[10],inhibits in vitro osteoclast (OC) differentiation in a dose-dependent manner
same,"Hemoglobin (best response, change)","[11]; Patient 1, 100 mg dose",+1.4 g/dL
same,Pain (best response),"[11]; Patient 1, 100 mg dose",Improvement
same,Tumor response (best response),"[11]; Patient 1, 100 mg dose",−41%
same,"tALP (best response, change)","[11]; Patient 1, 100 mg dose",−77%
same,increase in hemoglobin compared with baseline,"[11]; Patient 1, Week 2",1.4 g/dL
same,CT scan response category,"[11]; Patient 1, Week 6",partial response (PR)
same,"CT scan, decrease in measurable target lesions","[11]; Patient 1, Week 6",33%
same,"bone scan, radiotracer uptake by bone metastases","[11]; Patient 1, Week 6",dramatic decrease in radiotracer uptake
same,bone lesions on bone scan,"[11]; Patient 1, Week 12",near complete resolution of bone lesions
same,decrease in target lesions,"[11]; Patient 1, Week 12, stable through Week 18",44%
same,adverse event leading to withdrawal,"[11]; Patient 1, Week 18",Grade 3 diarrhea
same,PSA level,"[11]; Patient 1, Week 18 (430 ng/mL at baseline)",93.5 ng/mL
same,serum tALP level,"[11]; Patient 1, Week 18 (689 U/L at baseline)",159 U/L
same,bone pain,"[11]; Patient 1, four weeks after start",significant reduction in bone pain
same,Bone scan (best response),"[11]; Patient 2, 100 mg dose",Improvement
same,"Hemoglobin (best response, change)","[11]; Patient 2, 100 mg dose",+1.8 g/dL
same,Pain (best response),"[11]; Patient 2, 100 mg dose",Pain-free
same,Tumor response (best response),"[11]; Patient 2, 100 mg dose",−20%
same,"tALP (best response, change)","[11]; Patient 2, 100 mg dose",−6%
same,bone pain,"[11]; Patient 2, Week 4",reduction in bone pain
same,"CT scan, decrease in target lesions","[11]; Patient 2, Week 6",13%
same,"bone scan, radiotracer uptake by bone lesions","[11]; Patient 2, Week 6",slight flair in radiotracer uptake
same,"bone scan, radiotracer uptake","[11]; Patient 2, Week 12",substantial reduction of radiotracer uptake
same,decrease in measurable disease,"[11]; Patient 2, Week 12",20%
same,increase in hemoglobin compared with baseline,"[11]; Patient 2, Week 12",1.8 g/dL
same,"Hemoglobin (best response, change)","[11]; Patient 3, 100 mg dose",+2.2 g/dL
same,"PSA (best response, change)","[11]; Patient 3, 100 mg dose",−57%
same,Pain (best response),"[11]; Patient 3, 100 mg dose",Pain-free
same,Tumor response (best response),"[11]; Patient 3, 100 mg dose",−51%
same,"tALP (best response, change)","[11]; Patient 3, 100 mg dose",−77%
same,increase in hemoglobin compared with baseline,"[11]; Patient 3, Week 2",2.2 g/dL
same,"CT scan, decrease in measurable target lesions","[11]; Patient 3, Week 6",43%
same,"bone scan, radiotracer uptake","[11]; Patient 3, Week 6",dramatic reduction in radiotracer uptake
same,bone lesions on bone scan,"[11]; Patient 3, Week 12",complete resolution of bone lesions
same,decrease in measurable disease,"[11]; Patient 3, Week 12",51%
same,PSA level,"[11]; Patient 3, Week 18 (2.4 ng/mL at screening)",1.2 ng/mL
same,serum tALP level,"[11]; Patient 3, Week 18 (869 U/L at baseline)",197 U/L
same,pain,"[11]; Patient 3, after three weeks",complete resolution of pain
same,"IHC staining of proteins related to the VEGF pathway (VEGF, NRP-1, HIF1α) in ARCaPM tumors",[12],decreased IHC staining
